{
  "source": "patent US20230233500A1",
  "about": "“Gasdermin D (GSDMD) Succination for the Treatment of Inflammatory Disease” (University of Massachusetts, priority 2020, published 2023)",
  "key": {"[1]": {"system": "Mefv^V726/V726 mouse model", "assay": "Familial Mediterranean Fever Mefv V726/V726 mouse model", "type": "in vivo", "conditions": "for weight (weight loss / weight gain): diet containing dimethyl fumarate (100 mg/kg/day; 0.1% DMF) for 6 weeks; for GSDMD-N (GsdmD-p30) formation in spleen: immunoblot", "experimental": "FIGS. 15A-E. Fumarate alleviates FMF. (A-D) Weight gain (A), spleen weight (B), ELISA of serum IL-1B and immunoblot of spleen GSDMD (D) liver H&E (E) from Mefv726/726 receiving vehicle diet or a diet containing dimethyl fumarate (100 mg/kg/day) for 6 weeks. Data points indicative of individual mice. *, P<0.05 ***, P<0.001 (t-test or Two-way ANOVA). Error bars show means±SEM.\nAll animal experiments were approved by the Institutional Animal Care Use Committees at the University of Massachusetts Medical School. Animal were kept in specific pathogen free (SPF) environment. Male and female C57/BL6 and Gsdmd−/− mice were used. Gsdmd−/− mice were generated as previously described (22). MefvV726/V726 mice were a gift from Prof. Daniel Kastner (23). Sample sizes used are in line with other similar published studies. All animals were used at age 8-12 weeks.\nDMF embedded mouse diet was formulated by Lab Diets®. DMF was added to a base diet of laboratory lab diet 5001 at a dose 100 mg/kg/day of consumption. Mice received the control base diet or the DMF containing diet for 6 weeks."}, "[2]": {"target": "T1, GSDMD-N (Mus musculus, UniProt Q9D8T2)", "T1 construct": "Caspase cleavage of GSDMD liberates an N-terminal pore forming fragment (GSDMD-N, p30); host or cells: HEK293T", "T1 sequence (Q9D8T2 1-276 limits assumed)": "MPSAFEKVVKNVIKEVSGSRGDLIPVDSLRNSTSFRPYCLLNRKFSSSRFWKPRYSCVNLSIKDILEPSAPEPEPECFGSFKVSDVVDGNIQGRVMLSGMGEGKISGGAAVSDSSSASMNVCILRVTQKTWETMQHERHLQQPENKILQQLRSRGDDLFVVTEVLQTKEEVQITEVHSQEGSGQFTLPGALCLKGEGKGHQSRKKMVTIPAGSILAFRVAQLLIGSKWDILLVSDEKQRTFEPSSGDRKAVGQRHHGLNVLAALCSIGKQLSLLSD", "assay": "GSDMD-N induced LDH release in HEK293T cells", "type": "cell-based", "conditions": "transfected HEK293T cells", "description": "FIGS. 2A-J. Succination of GSDMD inhibits pyroptosis. Immunoblot of GSDMD in streptavidin pulldown from clicked lysates treated as indicated (A-B). Representative MS spectra of 2-monomethyl and 2-dimethylsuccination of GSDMD immunoprecipitated from fumarate treated BMDMs (C-D). Immunoblot of GSDMD in clicked lysates from transfected HEK293T. Cell death of HEK293T transfected as indicated (F-H). Immunoblots of casplp20 and GSDMD in BMDMs (I). Immunoblots of an in vitro binding assay of succinated and non-succinated GSDMD incubated with caspase 1 beads (J). A, B, F, J, […] representative images from three independent experiments. C, D, E, representative mass spec spectra from two independent experiments. H, I pooled data from three independent experiments. ***, P<0.001 (One-way anova). Error bars show means±SEM.\nCells were plated, treated and incubated in phenol red free medium. Following treatment medium was collected and assessed for LDH release using the CytoTox96 non-radioactive cytotoxicity assay (Promega) as per manufacturer's instructions. […]\nPrimary BMDMs from WT or GsdmD^−/− mice were cultured in 12-well plates (1×10^6 cells per ml; 1 ml) or 10 cm dishes (2×10^6 cells per ml; 10 ml). […] Samples were resolved by SDS-PAGE and stained using simply blue safe stain or transferred to nitrocellulose membranes and analyzed by immunoblot. […]"}, "[3]": {"conditions": "diet containing dimethyl fumarate for 6 weeks"}, "[4]": {"conditions": "diet containing dimethyl fumarate for 6 weeks, listed as DMF"}},
  "note": "Structures can show the parent of a compound that is named as a salt.",
  "data": [
    {"smiles": "COC(=O)/C=C/C(=O)OC", "note": "[Fumarate, Dimethyl fumarate]", "values": [
      {"measurement": "weight (weight loss / weight gain)", "setting": "[1]", "result": "alleviated"},
      {"measurement": "weight (weight loss / weight gain)", "setting": "[1]; listed as DMF", "result": "increased weight"},
      {"measurement": "IL-1β secretion (serum)", "setting": "[1]; [3]", "result": "alleviated"},
      {"measurement": "spleen size (splenomegaly)", "setting": "[1]; [3]", "result": "alleviated"},
      {"measurement": "liver pathology", "setting": "[1]; diet containing dimethyl fumarate for 6 weeks, H&E", "result": "alleviated"},
      {"measurement": "GSDMD-N (GsdmD-p30) formation in spleen", "setting": "[1]; [3]", "result": "alleviated"},
      {"measurement": "GSDMD-N (GsdmD-p30) formation in spleen", "setting": "[1]; [4]", "result": "reduced levels"},
      {"measurement": "spleen size (splenomegaly)", "setting": "[1]; [4]", "result": "reduced spleen size"},
      {"measurement": "fibrosis of liver and lung", "setting": "[1]; diet including 0.1% DMF", "result": "reduction in fibrosis"},
      {"measurement": "runting", "setting": "[1]; diet including 0.1% DMF", "result": "rescue of runting"},
      {"measurement": "GSDMD-N induced LDH release", "setting": "[2]", "result": "inhibited"}
    ]}
  ]
}
